According to patent publication US20230010299A1, “HETEROCYCLIC TRPML1 AGONISTS” (LIBRA THERAPEUTICS, INC., priority 2019, published 2023):

Experiments:
TRPML1 [1] = target: T1, TRPML1 (Homo sapiens, UniProt Q9GZU1); assay: Cellular TRPML1 assay (FLIPR TETRA, GCaMP6f calcium read-out); type: cell-based; conditions: HEK T-REx/GCaMP6f/TRPML1 cells; Ca2+ response over 300 s, normalized to ML-SA1 50 μM; Ca2+ free or Optimem condition not given; read-out: Ec50 (Activity of TRPML1 agonists)
T1 construct: expressed in transfected cells
In short: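 HEK T-REx cells stably expressing TRPML1 and GCaMP6f, assayed 24 h after seeding in Ca2+-free Tyrode's (pH 7.4) or Opti-MEM. Compounds injected on FLIPR Tetra (0.5% DMSO) in dose-response from 100 μM (1:2) or 50 μM (1:3.16); fluorescence kinetics 300 s, referenced to 50 μM ML-SA1 stimulator control.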

TRPML1 [2] = target: T1, TRPML1; assay: TRPML1 automated patch-clamp (QPatch 16X); type: cell-based; conditions: HEK T-REx/GcaMP6f/TRPML1 cells, current with compound/current in vehicle, extracellular pH 4.6
Experimental: TRPML1—Automated Patch-Clamp
HEK T-REx/GcaMP6f/TRPML1 cells were cultured in DMEM High Glucose (Lonza BioWhittaker cat. BE12-604F/U1; 500 mL) supplemented with Fetal Bovine Serum TET-FREE (Euroclone cat. EC S0182L; 50 mL, Penicillin-Streptomycin (BioWhittaker, cat. DE17-602E; 5 mL of 100× Solution), G418 (Sigma, cat. G8168; 0.25 mg/ml) and Zeocyn (InvivoGen, cat. ant-zn-1; 50 μg/ml).
HEK T-REx/GcaMP6f/TRPML1 cells were seeded 48 or 72 hours before experiment, at a concentration of 8*10^6/4*10^6 cells onto a T225 flask. Just before the experiments, cells were washed twice with D-PBS w/o Ca^2+/Mg^2+ (Euroclone cat. ECB4004L) and detached from the flask with trypsin-EDTA (Sigma cat. T4174; diluted 1/10). Cells were then re-suspended in the suspension solution: 25 mL EX-CELL ACF CHO medium(Sigma cat. C5467); 0.625 mL HEPES (Sigma cat. H0887); 0.25 mL of 100× Penicillin/Streptomycin (Euroclone cat. ECB3001D), 0.1 mL of Soybean Trypsin Inhibitor 10 mg/mL (Sigma cat. T6522) and placed on the QPatch 16X.
Dilution from stock were prepared just before the experiments in the extracellular solution (0.25% final DMSO concentration). DMSO solution was obtained from AppliChem (cat. A3672)
Patch Clamp Solutions: • Intracellular solution (mM): 120 CsMeSO3, 4 NaCl, 2 MgCl2, 10 EGTA, 20 HEPES, 2 Mg-ATP (pH 7.2 with CsOH). • Extracellular solution (mM): 140 NaGluconate, 5 KCl, 1 MgCl2, 2 CaCl2), 10 Glucose, 10 MES (pH 4.6 with HCl).
Patch Clamp Analysis—QPatch 16X
For the voltage clamp experiments on TRPML1, data were sampled at 5 KHz. After establishment of the seal and the passage in the whole cell configuration, the cells were held at −20 mV and the TRPML1 current was evoked using the voltage protocol illustrated in FIG. 2, applied every 5 sec. (50 ms at −20 mV; 20 ms at −120 mV, 1000 ms ramp from −120 to […]; 20 ms at +40 mV, and back to −20 mV); in the absence (vehicle period, i.e. 0.25% DMSO) and in the presence of increasing concentrations (3) of the compound under investigation.
Agonists: For data collection, the Sophion proprietary software was used and the analysis was performed off-line using Excel and GraphPad Prism (V 8.00). Results are reported in Table 6, expressed as TRPML1 current fold increase evoked by the compound under investigation (i.e. current in the presence of the compound/current in vehicle).

T1 sequence (Q9GZU1 whole entry): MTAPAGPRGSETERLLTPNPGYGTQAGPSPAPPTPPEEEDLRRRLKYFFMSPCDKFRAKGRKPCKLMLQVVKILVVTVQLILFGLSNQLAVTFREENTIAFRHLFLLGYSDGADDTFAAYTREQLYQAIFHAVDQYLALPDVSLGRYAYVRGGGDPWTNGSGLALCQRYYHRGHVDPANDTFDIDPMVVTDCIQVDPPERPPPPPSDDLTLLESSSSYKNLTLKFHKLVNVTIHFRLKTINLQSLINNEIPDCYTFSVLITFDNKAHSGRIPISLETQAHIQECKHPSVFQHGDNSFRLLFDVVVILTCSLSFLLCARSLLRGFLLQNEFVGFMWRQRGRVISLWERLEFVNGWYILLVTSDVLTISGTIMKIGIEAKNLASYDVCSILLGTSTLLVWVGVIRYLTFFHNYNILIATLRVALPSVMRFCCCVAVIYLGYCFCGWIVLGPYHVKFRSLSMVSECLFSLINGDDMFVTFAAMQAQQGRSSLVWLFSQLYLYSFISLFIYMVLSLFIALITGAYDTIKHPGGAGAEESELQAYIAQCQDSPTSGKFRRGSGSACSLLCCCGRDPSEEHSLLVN

| EC50 (TRPML1 [1]) | Qpatch Assay TRPML1 agonism Current fold increase Mean ± SEM (n) (TRPML1 [2]; 0.3 μM compound) | Qpatch Assay TRPML1 agonism Current fold increase Mean ± SEM (n) (TRPML1 [2]; 3.0 μM compound) | Qpatch Assay TRPML1 agonism Current fold increase Mean ± SEM (n) (TRPML1 [2]; 30 μM compound) | SMILES |
| --- | --- | --- | --- | --- |
| 1.8 µM | 3.5 ± 1.8 (3) | 177.1 ± 38.2 (3) | 1013.8 (1) | CN(C)S(=O)(=O)c1ccc(S(=O)(=O)Nc2ccccc2N2CCC(OCc3ccccc3)CC2)cc1 [Example 25, N4-{2-[4-(benzyloxy)piperidin-1-yl]phenyl}-N1,N1-dimethylbenzene-1,4-disulfonamide] |
| 4.5 µM | 0.46 ± 0.16 (3) | 41.4 ± 21.1 | 390 ± 158 (3) | COC1CCN(c2ccccc2NS(=O)(=O)c2ccc(S(=O)(=O)N(C)C)cc2)CC1 [Example 26, N4-[2-(4-methoxypiperidin-1-yl)phenyl]-N1,N1-dimethylbenzene-1,4-disulfonamide] |
| 7.2 µM | 1.3 ± 1.0 (3) | 10.4 ± 3.8 (3) | 472.5 ± 267.9 (3) | COC(=O)N1CCN(c2ccccc2NS(=O)(=O)c2ccc(S(=O)(=O)N(C)C)cc2)CC1 [Example 52, methyl 4-{2-[4-(dimethylsulfamoyl)benzenesulfonamido]phenyl}piperazine-1-carboxylate] |
| 3.6 µM | 1.9 ± 1.6 (3) | 88.3 ± 59.9 (3) | 257.4 ± 190.7 (3) | CN(C)S(=O)(=O)c1ccc(S(=O)(=O)Nc2ccccc2N2CCN(C(=O)OCC(F)(F)F)CC2)cc1 [Example 53, 2,2,2-trifluoroethyl4-{2-[4-(dimethylsulfamoyl)benzenesulfonamido]phenyl}piperazine-1-carboxylate] |
| 3.2 µM | 0.5 ± 0.3 (3) | 22.5 ± 10.6 (3) | 656.7 ± 150.5 (3) | CCOC(=O)N1CCN(c2ccccc2NS(=O)(=O)c2ccc(S(=O)(=O)N(C)C)cc2)CC1 [Example 70, ethyl4-{2-[4-(dimethylsulfamoyl)benzenesulfonamido]phenyl}piperazine-1-carboxylate] |
| 6.4 µM | −0.070 | −0.31 | 11.3 | CN(C)S(=O)(=O)c1ccc(S(=O)(=O)Nc2ccccc2N2CCN(C(=O)c3ccccc3)CC2)cc1 [Example 73, N4-[2-(4-benzoylpiperazin-1-yl)phenyl]-N1,N1-dimethylbenzene-1,4-disulfonamide] |
| 3.2 µM | 4.3 ± 2.0 (6) | 356 ± 69.7 (6) | 639 + 241 (3) | CN(C)S(=O)(=O)c1ccc(S(=O)(=O)NCc2ccccc2N2CCCCC2)cc1 [Example 74, N1,N1-dimethyl-N4-{[2-(piperidin-1-yl)phenyl]methyl}benzene-1,4-disulfonamide] |
| 6.9 µM | 0.68 ± 0.34 (3) | 16.5 ± 9.1 (3) | 166 ± 75.7 (3) | CN(C)S(=O)(=O)c1ccc(S(=O)(=O)Nc2ccccc2C2CCN(C(=O)OC(C)(C)C)CC2)cc1 [Example 78, f-butyl 4-{2-[4-(dimethylsulfamoyl)benzenesulfonamido]phenyl} piperidine-1-carboxylate] |
| 5.9 µM | 2.5 ± 1.3 (3) | 12.5 ± 8.6 (3) | 138 ± 55.7 (3) | CCCN(C)C(=O)N1CCN(c2ccccc2NS(=O)(=O)c2ccc(S(=O)(=O)N(C)C)cc2)CC1 [Example 82, 4-{2-[4-(dimethylsulfamoyl)benzenesulfonamido]phenyl}-N-methyl-N-propylpiperazine-1-carboxamide] |
| 1.8 µM | 70.2 ± 13.8 (4) | 125.0 ± 31.0 (4) | 140.3 ± 36.8 (4) | Cc1ccc(S(=O)(=O)Nc2ccccc2N2CCN(C(=O)OC(C)(C)C)CC2)cc1 [Example 83, t-butyl 4-[2-(4-methylbenzenesulfonamido)phenyl]piperazine-1-carboxylate] |
| 4.2 µM | 8.6 ± 1.3 (2) | 32.9 ± 3.5 (2) | 42.7 ± 1.4 (2) | COc1ccc(S(=O)(=O)Nc2ccccc2N2CCN(C(=O)OC(C)(C)C)CC2)cc1 [Example 84, t-butyl 4-[2-(4-methoxybenzenesulfonamido)phenyl]piperazine-1-carboxylate] |
| 1.6 µM | 17.7 ± 5.5 (4) | 206 ± 167 (2) | 260 ± 202 (2) | CN(C)S(=O)(=O)c1ccc(S(=O)(=O)Nc2ccccc2N2CCCCCC2)cc1 [Example 85, N4-[2-(azepan-1-yl)phenyl]-N 1 ,N1-dimethylbenzene-1,4-disulfonamide] |
| 6.5 µM | −0.066 ± 0.080 (3) | 3.9 ± 2.5 (3) | 125 ± 75.3 (3) | CC(C)CNC(=O)C1CCN(c2ccccc2NS(=O)(=O)c2ccc(S(=O)(=O)N(C)C)cc2)CC1 [Example 88, 1-{2-[4-(dimethylsulfamoyl)benzenesulfonamido]phenyl}-N-(2-methylpropyl)piperidine-4-carboxamide] |
| 2.5 µM | 140 ± 44.1 (4) | 83.1 ± 34.0 (2) | 112 ± 38.1 (2) | Cc1ccc(S(=O)(=O)Nc2ccccc2N2CCC(C(=O)OC(C)(C)C)CC2)cc1 [Example 90] |
| 3.3 µM | 3.1 ± 1.2 (3) | 21.7 ± 7.9 (3) | 58.8 ± 16.6 (3) | COc1ccc(S(=O)(=O)Nc2ccccc2N2CCC(C(=O)OC(C)(C)C)CC2)cc1 [Example 91] |
